Laboratory results reported in patent US20230226065A1, “ANTI-INFLAMMATORY COMPOSITIONS, METHODS AND USES THEREOF” (COMVITA LIMITED, priority 2020, published 2023).

Experiments:
[1] = system: active MMP-9; experiment: Gelatin gel zymography, active MMP-9 band; format: biochemical; conditions: NNGH 2.6 μM in developing buffer; active MMP-9
Method: Novex™ 10% Zymogram Plus (Gelatin) Protein Gels (15 wells) were purchased from Thermo Fisher Scientific Inc. (Auckland, New Zealand). All chemicals required for the zymogram analysis were also purchased from Thermo Fisher, these include Novex™ Sharp Pre-stained Protein Standard, Novex Tris-Glycine SDS sample buffer, Novex Tris-Glycine SDS running buffer, Novex Zymogram renaturing buffer and Novex Zymogram developing buffer. […] Gelatin gel zymography was performed as an independent technique to confirm the inhibition of MMP-9 from 3,6,7-trimethyllumazine. This technique uses a non-reducing SDS-PAGE (sodium dodecyl sulfate polyacrylamide gel electrophoresis) gel embedded with gelatin. Proteins are migrated and separated during electrophoresis. The SDS is removed after electrophoresis and the gel is then incubated with essential cofactors required for enzymatic activity. The embedded gelatin can be digested by MMP-9, resulting in clear bands on a dark blue background after staining with Coomassie blue dyes. The gelatinase activity is represented by band densitometry, which can be assessed with image analysis software. […]
After incubation, the gelatin gel was rinsed with water for three times (5 min each) under gentle agitation. […] MMP-9 activities were analysed using densitometry on ImageJ Version 1.52a. […]

[2] = biological target: T1, recombinant MMP-9 enzyme (Homo sapiens, UniProt P14780); experiment: MMP-9 inhibitor screening assay (fluorometric); format: biochemical; conditions: NNGH inhibitor control
T1 construct: purchased Abcam ab139449
T1 sequence (P14780 94-707): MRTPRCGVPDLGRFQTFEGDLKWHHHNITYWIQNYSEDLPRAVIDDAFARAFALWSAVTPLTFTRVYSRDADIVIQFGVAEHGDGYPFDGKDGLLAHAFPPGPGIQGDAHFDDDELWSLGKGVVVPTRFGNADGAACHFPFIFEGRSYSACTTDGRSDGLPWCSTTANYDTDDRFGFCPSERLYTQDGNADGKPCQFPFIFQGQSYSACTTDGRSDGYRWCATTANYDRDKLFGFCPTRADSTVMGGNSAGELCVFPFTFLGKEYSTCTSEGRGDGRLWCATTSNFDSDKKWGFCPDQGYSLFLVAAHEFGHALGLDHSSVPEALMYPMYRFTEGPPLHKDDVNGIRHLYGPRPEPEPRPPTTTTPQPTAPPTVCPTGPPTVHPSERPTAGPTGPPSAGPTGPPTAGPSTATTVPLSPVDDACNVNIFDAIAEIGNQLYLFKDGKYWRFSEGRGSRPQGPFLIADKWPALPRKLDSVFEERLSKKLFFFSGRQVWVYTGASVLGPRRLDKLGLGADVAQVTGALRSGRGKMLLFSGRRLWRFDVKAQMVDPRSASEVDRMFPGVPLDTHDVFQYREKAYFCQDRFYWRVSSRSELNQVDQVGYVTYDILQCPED
Method: The MMP-9 inhibitor screening assay (fluorometric) kits were purchased from Abcam (Melbourne, Australia). The fluorometric kit contains the recombinant MMP-9 enzyme, MMP inhibitor NNGH (N-isobutyl-N-[4-methoxyphenylsulfonyl]glycyl hydroxamic acid), MMP fluorogenic substrate solubilised in DMSO, the fluorometric assay buffer and 96-well clear microplate.
Inhibitory activity on MMP-9 was assessed using the commercial MMP-9 inhibitor screening assay kit. MMP-9 activity was expressed as a change in fluorescence intensity measured using SpectraMax iD3 multi-mode microplate reader (Molecular Devices, San Jose, USA).
The assay employs a FRET-tagged (fluorescence resonance energy transfer) substrate, which can be hydrolysed by MMP-9 at a specific site (Abcam, 2018). The cleavage of the FRET substrate releases the quenched fluorescent Mca (7-methoxycoumarin-4-yl)-acetyl group (Abcam, 2018). The kit employs a quenched fluorogenic substrate Mca-Pro-Leu-Gly-Leu-Dpa-Ala-Arg-NH2, where the Mca fluorescence is quenched by Dpa until cleavage by MMPs. The amount of fluorescent product yielded by MMP-9 can be detected fluorometrically and it is proportional to the enzyme activity. Fluorescence were measured at ex320 nm-em395 nm to minimise fluorescence interference from 3,6,7-trimethyllumazine at ex330 nm-em470 nm. […]

[3] = biological target: T1, recombinant MMP-9 enzyme; experiment: MMP-9 inhibitor screening assay (colorimetric); format: biochemical; conditions: NNGH at 1.3 μM
From the text: The MMP-9 inhibitor screening assay (colorimetric) kits were purchased from Abcam (Melbourne, Australia). The kit contains the recombinant MMP-9 enzyme, MMP inhibitor NNGH, MMP chromogenic substrate, the colorimetric assay buffer and 96-well clear microplate.
The colorimetric kit uses a thiopeptide as a chromogenic substrate (Ac-PLG-[2-mercapto-4-methyl-pentanoyl]-LG-OC2H5), which can be hydrolysed by MMPs to produce a sulfhydryl group. This intermediate product further reacts with DTNB [5,5′-dithiobis(2-nitrobenzoic acid), Ellman's reagent] to form 2-nitro-5-thiobenzoic acid, which can be detected by absorbance at 412 nm. The change in absorbance was measured using the SpectraMax iD3 multi-mode microplate reader (Molecular Devices, San Jose, USA). The assays are performed on a convenient 96-wells microplate with a final reaction volume of 100 μL. Prior to the assay, all testing samples and inhibitor controls were incubated with MMP-9 for 60 min at 37° C. […] The absorbance was measured at 1 min intervals during the first 20 min, then 10 min intervals till the end of assay.
Recombinant MMP-9 and the chromogenic substrate were used as the positive control to represent 100% enzyme activity. […] A range of 3,6,7-trimethyllumazine concentrations were diluted with the colorimetric assay buffer to measure the absorbance of the reaction product.

[4] = system: COX-2 protein expression in THP-1 cells; experiment: LPS-induced COX-2 protein expression in THP-1 cells (Western blot); format: cell-based, human
Method: THP-1 cells were seeded in 12-well tissue-culture treated plates at a density of 500,000 cells/well in growth media overnight. […] Cells were washed with cold PBS and lysed in RIPA buffer containing protease inhibitors (Sigma P2714) for 15 minutes on ice. Debris was pelleted by centrifugation at 14,000×g for 15 min and lysate supernatants were frozen at −80° C. for later analysis by western blot.
Western blots for semi-quantitative COX-2 (Abcam ab188183) protein expression were conducted on THP-1 monocyte cells lysed with RIPA buffer containing protease inhibitors. A total of 10 μg protein was loaded onto precast 10% acrylamide gels (BioRad, NZ) then separated by electrophoresis at 120 V at room temperature. […] The membranes were then incubated with the primary antibody that correspond to the protein of interest for 1 h. […] Western blot images were captured with an Amersham™ Imager 600 (GE Healthcare, Chicago, Ill., USA) and densitometry measurement of protein bands was analysed with the accompanying image analysis software.
For analysis of Western blots, densitometry measurements from the proteins of interest were normalised to the densitometry of p-actin for each sample. […] The significance level was set at p≤0.05.

[5] = system: MMP-9 secretion in differentiated THP-1 cells; experiment: LPS induced MMP-9 secretion in differentiated THP-1 cells (ELISA); format: cell-based, human; conditions: 6 μM Azithromycin positive control; LPS 1 μg/mL; P=0.00
Method: THP-1 cells (ATCC, ATCTIB202) were grown in RPMI-1640 (Gibco, 11875093)+0.05 mM 2-mercaptoethanol+10% fetal calf serum (FCS)+1% pen-strep. For experiments, the cells were cultured in RPMI-1640 medium with 10% fetal bovine serum (FBS) only.
THP-1 monocyte cells were seeded at a density of 2.5×10^5 cells/ml in 96-well plates and differentiated into macrophages using 10 ng/ml of phorbol 12-myristate 13-acetate (PMA) (Bergin et al) (Sigma, P1585-1MG, Lot #SLBX889, 100% purity) for 72 hours. PMA media was then removed from the differentiated THP-1 cells, the cells were then washed once in RPMI-1640 media and then left to rest for 5 hours.
The differentiated THP-1 cells were stimulated with LPS from E. coli 055:B5 (Sigma, L6529; Lot #037K4068). LPS tested at a concentration of 1 μg/ml (Kong et al). […] After 24 hours, the cell culture media was collected and measured for MMP-9 concentration using MMP-9 ELISA (R&D systems, RDSDY91105 lot #P239459 and DY008 Lot #P239900). […]
In order to better capture the variability, each treatment was done at least in triplicate in each plate (2 plates). Media from the triplicate wells were pooled and analysed in duplicates for the MMP-9 ELISA. […]

[6] = system: THP-1 cells; experiment: WST-1 cell viability assay, LPS-stimulated THP-1 cells; format: cell-based; conditions: 10 μg/mL dexamethasone; LPS co-stimulation 18 hours
Method: Human monocytic THP-1 cells were seeded in 96-well tissue-culture treated plates at a density of 50,000 cells/well in growth media (RPMI media supplemented with 10% fetal bovine serum, 2 mM L-glutamine and penicillin-streptomycin) overnight. […] Control wells were treated with hydrogen peroxide (0, 0.5, 1, and 2 mM) for 1 hour prior to addition of WST-1 reagent (Roche, NZ). WST-1 reagent was added to all wells at the end of the 18 hour incubation period, and absorbance readings were subsequently measured 30 min and 1 h and 10 mins after WST-1 addition. Cell viability expressed the percent change from the LPS-stimulated PBS control.

SMILES: COc1ccc(S(=O)(=O)N(CC(=O)NO)CC(C)C)cc1 [NNGH, N-isobutyl-N-[4-methoxyphenylsulfonyl]glycyl hydroxamic acid, reference compound]
- inhibition of gelatinase activity [1]: completely inhibited
- change in fluorescence (MMP-9 activity) [2]: almost no change in fluorescence
- inhibition of MMP-9 activity [3]: inhibited most of the MMP-9 activity

SMILES: COc1ccc2c(c1)c(CC(=O)O)c(C)n2C(=O)c1ccc(Cl)cc1 [Indomethacin, reference compound]
- reduction of LPS-induced COX-2 expression ([4]; indomethacin 10 μmol/L): did not significantly reduce

SMILES: CC[C@H]1OC(=O)[C@H](C)[C@@H](O[C@H]2C[C@@](C)(OC)[C@@H](O)[C@H](C)O2)[C@H](C)[C@@H](O[C@@H]2O[C@H](C)C[C@H](N(C)C)[C@H]2O)[C@](C)(O)C[C@@H](C)CN(C)[C@H](C)[C@@H](O)[C@]1(C)O [Azithromycin]
- effect on MMP-9 secretion [5]: inhibits MMP-9 secretion

SMILES: C[C@@H]1C[C@H]2[C@@H]3CCC4=CC(=O)C=C[C@]4(C)[C@@]3(F)[C@@H](O)C[C@]2(C)[C@@]1(O)C(=O)CO [Dexamethasone, reference compound]
- cell death (WST-1 cell viability) [6]: did not induce cell death
- COX-2 Relative expression (mean ± SEM) ([4]; 10 μg/mL, LPS 24 hours, LPS positive control 1.26 ± 0.11, n=6): 0.85 ± 0.07
